Reference: ChEMBL document CHEMBL1201862, “PubChem BioAssay data set” (2004)
The source made the active and inactive calls.

What was measured:
[1] = biological target: Sphingosine 1-phosphate receptor 1 (Homo sapiens, UniProt P21453); test: Fluorescence-based counterscreen assay for S1P4 agonists: Cell-based dose response high throughput screening assay to identify agonists of the Sphingosine 1-Phosphate Receptor 1 (S1P1). [Related pubchem assays (depositor defined):AID1509, AID1523, AID1801, AID463107, AID463118, AID463119, AID463122, AID463123, AID463129, AID463225, AID504400, AID504460]; type: functional
[2] = biological target: Sphingosine 1-phosphate receptor 4 (Homo sapiens, UniProt O95977); test: Fluorescence dose response cell-based high throughput screening assay for agonists of the Sphingosine 1-Phosphate Receptor 4 (S1P4). [Related pubchem assays: 1509 (Primary screen.), 1523 (Confirmation screen in triplicates.)]; type: functional
[3] = biological target: T1, E3 ubiquitin-protein ligase XIAP (Homo sapiens, UniProt P98170); test: SAR analysis of Antagonists of XIAP-Bir3 domain of IAP-family anti-apoptotic proteins. [Related pubchem assays (depositor defined):AID1018, AID1449, AID1513, AID1514, AID1638]
[4] = biological target: T1, E3 ubiquitin-protein ligase XIAP; test: SAR analysis of Antagonists of IAP-family anti-apoptotic proteins. [Related pubchem assays (depositor defined):AID1018, AID1449, AID1513, AID1514, AID1638]
[5] = biological target: T2, Kappa-type opioid receptor (Homo sapiens, UniProt P41145); test: SAR analysis of small molecule antagonists of the kappa opioid receptor via a luminescent beta-arrestin assay - Set 4. [Related pubchem assays (depositor defined):AID1777, AID1778, AID1785, AID1786, AID1966, AID2133, AID2136, AID2285]; type: functional
[6] = biological target: T2, Kappa-type opioid receptor; test: SAR analysis of small molecule antagonists of the kappa opioid receptor via a luminescent beta-arrestin assay - Set 5. [Related pubchem assays (depositor defined):AID1778, AID1785]; type: functional
[7] = Luminescence Cell-Based Dose Retest to Confirm Inhibitors of Cancer Stem Cells. [Related pubchem assays (depositor defined):AID2717, AID2721]; type: functional; settings: Homo sapiens
[8] = biological target: DNA damage-inducible transcript 3 protein (Mus musculus, UniProt P35639); type: functional, Cricetulus griseus
[9] = biological target: T3, Cannabinoid receptor 2 (Homo sapiens, UniProt P34972); test: SAR analysis of antagonists of the Cannabinoid Receptor 2 using an Image-Based Assay - Set 2. [Related pubchem assays (depositor defined):AID1961, AID1965]; type: functional
[10] = biological target: T4, G-protein coupled receptor 55 (Homo sapiens, UniProt Q9Y2T6); test: SAR analysis of selective Agonists of GPR55 using an Image-Based Assay - Set 2. [Related pubchem assays (depositor defined):AID1961, AID1965]; type: functional
[11] = biological target: T3, Cannabinoid receptor 2; test: SAR analysis of agonists of the Cannabinoid Receptor 2 using an Image-Based Assay - Set 2. [Related pubchem assays (depositor defined):AID1961, AID1965]; type: functional
[12] = biological target: T5, G-protein coupled receptor 35 (Homo sapiens, UniProt Q9HC97); test: SAR analysis of Agonists of the GPR35 Receptor using an Image-Based Assay - Set 3. [Related pubchem assays (depositor defined):AID1961, AID1965]; type: functional
[13] = biological target: T6, Cannabinoid receptor 1 (Homo sapiens, UniProt P21554); test: SAR analysis of antagonists of the Cannabinoid Receptor 1 using an Image-Based Assay - Set 3. [Related pubchem assays (depositor defined):AID1961, AID1965]; type: functional
[14] = biological target: T6, Cannabinoid receptor 1; test: SAR analysis of agonists of the Cannabinoid Receptor 1 using an Image-Based Assay - Set 3. [Related pubchem assays (depositor defined):AID1961, AID1965]; type: functional
[15] = biological target: T5, G-protein coupled receptor 35; test: SAR analysis of Antagonists of the GPR35 Receptor using an Image-Based Assay - Set 4. [Related pubchem assays (depositor defined):[…]]; type: functional
[16] = biological target: T4, G-protein coupled receptor 55; test: GPR55 antagonists blocking LPI-driven arrestin recruitment, primary screen, imaging, U2OS, beta-arrestin-GFP, LPI agonist (AID 2013); type: functional;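 further: antagonist potency measured as reduced agonist-driven arrestin aggregation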
[17] = biological target: T6, Cannabinoid receptor 1; test: SAR analysis of antagonists of the Cannabinoid Receptor 1 using an Image-Based Assay - Set 2. [Related pubchem assays (depositor defined):AID2013, AID2026]; type: functional
[18] = biological target: T5, G-protein coupled receptor 35; test: SAR analysis of Agonists of the GPR35 Receptor using an Image-Based Assay - Set 2. [Related pubchem assays (depositor defined):AID2013, AID2026]; type: functional
[19] = biological target: T3, Cannabinoid receptor 2; test: SAR analysis of antagonists of the Cannabinoid Receptor 2 using an Image-Based Assay. [Related pubchem assays (depositor defined):AID2013, AID2026]; type: functional
[20] = biological target: T6, Cannabinoid receptor 1; test: SAR analysis of agonists of the Cannabinoid Receptor 1 using an Image-Based Assay - Set 2. [Related pubchem assays (depositor defined):AID2013, AID2026]; type: functional
[21] = biological target: T5, G-protein coupled receptor 35; test: SAR analysis of Antagonists of the GPR35 Receptor using an Image-Based Assay - Set 3. [Related pubchem assays (depositor defined):AID2013, AID2026]; type: functional
[22] = biological target: T4, G-protein coupled receptor 55; test: GPR55 antagonist potency of analogs, SAR follow-up, imaging, U2OS, beta-arrestin-GFP, LPI agonist, set 2 (AID 2820); type: functional
[23] = biological target: T3, Cannabinoid receptor 2; test: SAR analysis of agonists of the Cannabinoid Receptor 2 using an Image-Based Assay. [Related pubchem assays (depositor defined):AID2013, AID2026]; type: functional
[24] = biological target: T2, Kappa-type opioid receptor; test: KOR agonist analogs, arrestin-GFP redistribution, SAR follow-up, imaging, image-based, set 3 (AID 488833); type: functional
[25] = biological target: Mu-type opioid receptor (Homo sapiens, UniProt P35372); test: SAR Analysis of Agonists of the MOR Receptor using an Image-Based Assay - Set 3. [Related pubchem assays (depositor defined):AID1777, AID1785, AID1786, AID1966, AID2133, AID2136, AID2284, AID2285, AID2352]; type: functional
[26] = biological target: Delta-type opioid receptor (Homo sapiens, UniProt P41143); test: SAR Analysis of Agonists of the DOR Receptor using an Image-Based Assay - Set 3. [Related pubchem assays (depositor defined):AID1777, AID1786]; type: functional
[27] = biological target: T2, Kappa-type opioid receptor; test: SAR analysis of small molecule agonists of the kappa opioid receptor via a luminescent beta-arrestin assay - Set 3. [Related pubchem assays (depositor defined):AID1777, AID1785, AID1786, AID1966, AID2133, AID2136, AID2284, AID2500]; type: functional
[28] = biological target: T7, Estrogen receptor (Homo sapiens, UniProt P03372);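 further: potency for inhibiting coactivator peptide recruitment to the receptor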
T7 sequence (P03372 whole entry): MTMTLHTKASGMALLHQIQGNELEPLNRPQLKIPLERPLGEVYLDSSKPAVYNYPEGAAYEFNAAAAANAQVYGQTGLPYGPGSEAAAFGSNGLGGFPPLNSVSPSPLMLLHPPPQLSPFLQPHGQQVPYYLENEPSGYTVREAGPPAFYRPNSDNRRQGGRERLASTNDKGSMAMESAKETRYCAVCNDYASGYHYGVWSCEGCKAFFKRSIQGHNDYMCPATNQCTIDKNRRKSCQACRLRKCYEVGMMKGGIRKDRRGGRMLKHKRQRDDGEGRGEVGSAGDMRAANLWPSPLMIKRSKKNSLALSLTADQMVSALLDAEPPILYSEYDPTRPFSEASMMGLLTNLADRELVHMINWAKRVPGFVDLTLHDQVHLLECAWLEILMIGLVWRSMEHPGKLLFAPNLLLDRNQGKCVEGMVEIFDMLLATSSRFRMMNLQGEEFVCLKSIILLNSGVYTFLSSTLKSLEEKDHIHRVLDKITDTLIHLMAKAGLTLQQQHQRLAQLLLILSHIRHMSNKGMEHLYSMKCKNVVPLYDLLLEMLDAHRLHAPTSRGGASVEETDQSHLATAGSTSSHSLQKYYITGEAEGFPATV

[29] = inhibitors of intracellular T. cruzi replication, confirmation, NIH3T3 host cells, beta-gal luminescence (AID 2044); type: functional, cell-based;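 further: intracellular parasites grown in NIH/3T3 mouse fibroblasts as host cells; luminescent beta-galactosidase reporter signal from transgenic T. cruzi replicating inside host cells; inhibitors lower the luminescence signal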
[30] = growth suppression of PTEN-null colon cells, dose response, cell-based, HCT116 PTEN knockout (AID 1047); type: functional;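 further: HCT116 colon tumor cells with PTEN knocked out; cells exposed to compound for 60 hours before readout; potency for loss of cell viability measured by luminescence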
[31] = cytotoxicity toward NIH3T3 fibroblasts, dose response, counter-screen, cell-based, ATP luminescence, mouse fibroblasts (AID 2010); type: functional;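 further: cells exposed to compound for about 90 hours before reading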
[32] = growth suppression of beta-catenin-knockout colon cells, dose response, cell-based, HCT116, human colon tumor (AID 1045); type: functional;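 further: HCT116 colon tumor cells with beta catenin knocked out; cells exposed to compound for 60 hours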
[33] = biological target: T8, Coagulation factor XII (Homo sapiens, UniProt P00748); test: Factor XIIa Dose Response Confirmation from Single Well HTS. [Related pubchem assays (depositor defined):AID701]; type: functional
T8 sequence (P00748 whole entry): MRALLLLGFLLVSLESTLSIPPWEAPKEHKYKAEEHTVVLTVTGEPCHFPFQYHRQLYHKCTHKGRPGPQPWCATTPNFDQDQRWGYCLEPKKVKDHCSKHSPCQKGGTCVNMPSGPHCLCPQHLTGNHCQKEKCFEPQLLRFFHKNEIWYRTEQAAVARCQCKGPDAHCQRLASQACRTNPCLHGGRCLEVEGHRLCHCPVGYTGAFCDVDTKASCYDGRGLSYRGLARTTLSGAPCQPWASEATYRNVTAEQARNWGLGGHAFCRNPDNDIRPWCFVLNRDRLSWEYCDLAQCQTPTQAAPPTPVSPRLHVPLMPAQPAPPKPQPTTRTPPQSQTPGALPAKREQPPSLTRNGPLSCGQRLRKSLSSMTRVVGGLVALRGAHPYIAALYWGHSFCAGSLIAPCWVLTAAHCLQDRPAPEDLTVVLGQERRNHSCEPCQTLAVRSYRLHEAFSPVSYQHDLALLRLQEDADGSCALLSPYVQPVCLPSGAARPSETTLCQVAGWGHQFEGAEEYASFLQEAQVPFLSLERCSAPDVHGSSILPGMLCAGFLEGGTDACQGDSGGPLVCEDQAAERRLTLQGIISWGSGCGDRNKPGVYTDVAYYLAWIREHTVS

[34] = biological target: T9, Carboxy-terminal domain RNA polymerase II polypeptide A small phosphatase 1 (Homo sapiens, UniProt Q9GZU7); test: inhibitors of CTDSP1, concentration-response testing, biochemical assay, absorbance-based, actives from ultra-high-throughput screening (AID 540297); type: functional
T9 sequence (Q9GZU7 whole entry): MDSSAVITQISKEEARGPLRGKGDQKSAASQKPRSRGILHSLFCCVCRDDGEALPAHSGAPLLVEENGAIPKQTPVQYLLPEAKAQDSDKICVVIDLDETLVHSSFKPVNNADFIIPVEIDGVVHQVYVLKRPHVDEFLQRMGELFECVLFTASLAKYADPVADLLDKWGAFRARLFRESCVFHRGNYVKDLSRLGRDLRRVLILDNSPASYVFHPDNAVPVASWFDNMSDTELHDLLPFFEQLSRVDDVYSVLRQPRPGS
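Wherever AC50 is given: cells exposed to compound for roughly 70 hours or longer before luminescence read.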

T5 sequence (Q9HC97 whole entry): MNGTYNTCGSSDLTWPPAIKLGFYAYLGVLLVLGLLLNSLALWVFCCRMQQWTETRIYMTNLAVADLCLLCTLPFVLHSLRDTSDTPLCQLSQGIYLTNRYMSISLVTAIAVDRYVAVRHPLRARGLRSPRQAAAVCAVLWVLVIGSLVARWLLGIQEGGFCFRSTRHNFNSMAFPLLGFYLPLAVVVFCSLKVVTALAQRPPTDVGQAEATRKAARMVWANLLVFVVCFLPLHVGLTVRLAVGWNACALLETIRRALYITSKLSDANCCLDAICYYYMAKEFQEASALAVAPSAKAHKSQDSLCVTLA
T4 sequence (Q9Y2T6 whole entry): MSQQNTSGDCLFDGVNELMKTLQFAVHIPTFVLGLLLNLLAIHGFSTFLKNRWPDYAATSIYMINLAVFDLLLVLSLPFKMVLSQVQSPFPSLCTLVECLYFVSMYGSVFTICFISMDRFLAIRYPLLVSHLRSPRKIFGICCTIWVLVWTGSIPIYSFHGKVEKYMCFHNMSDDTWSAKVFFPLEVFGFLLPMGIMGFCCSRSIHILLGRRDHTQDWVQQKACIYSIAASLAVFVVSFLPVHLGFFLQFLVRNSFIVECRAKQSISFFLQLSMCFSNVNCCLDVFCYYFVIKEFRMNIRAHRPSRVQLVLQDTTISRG
T6 sequence (P21554 whole entry): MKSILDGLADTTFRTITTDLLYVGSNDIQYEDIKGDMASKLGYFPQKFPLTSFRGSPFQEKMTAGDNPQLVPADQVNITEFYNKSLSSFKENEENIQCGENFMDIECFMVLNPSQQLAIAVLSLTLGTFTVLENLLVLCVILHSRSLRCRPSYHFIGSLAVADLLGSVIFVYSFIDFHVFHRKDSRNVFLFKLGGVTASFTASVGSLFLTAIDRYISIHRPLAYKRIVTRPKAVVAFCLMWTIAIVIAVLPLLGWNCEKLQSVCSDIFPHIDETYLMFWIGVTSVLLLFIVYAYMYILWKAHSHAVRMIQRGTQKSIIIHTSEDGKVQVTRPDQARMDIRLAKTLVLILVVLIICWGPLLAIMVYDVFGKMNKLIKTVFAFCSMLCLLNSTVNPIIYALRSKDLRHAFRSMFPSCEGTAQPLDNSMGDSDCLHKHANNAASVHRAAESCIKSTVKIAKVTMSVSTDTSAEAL
T2 sequence (P41145 whole entry): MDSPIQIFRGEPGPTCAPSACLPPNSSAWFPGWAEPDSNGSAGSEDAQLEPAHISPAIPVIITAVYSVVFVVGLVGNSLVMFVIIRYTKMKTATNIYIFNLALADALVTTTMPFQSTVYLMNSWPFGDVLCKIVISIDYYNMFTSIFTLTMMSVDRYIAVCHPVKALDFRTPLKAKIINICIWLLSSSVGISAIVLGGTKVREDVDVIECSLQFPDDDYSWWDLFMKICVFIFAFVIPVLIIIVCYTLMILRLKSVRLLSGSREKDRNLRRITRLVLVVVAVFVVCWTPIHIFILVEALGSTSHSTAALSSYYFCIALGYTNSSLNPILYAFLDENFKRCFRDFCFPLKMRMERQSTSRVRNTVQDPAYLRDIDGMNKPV
T3 sequence (P34972 whole entry): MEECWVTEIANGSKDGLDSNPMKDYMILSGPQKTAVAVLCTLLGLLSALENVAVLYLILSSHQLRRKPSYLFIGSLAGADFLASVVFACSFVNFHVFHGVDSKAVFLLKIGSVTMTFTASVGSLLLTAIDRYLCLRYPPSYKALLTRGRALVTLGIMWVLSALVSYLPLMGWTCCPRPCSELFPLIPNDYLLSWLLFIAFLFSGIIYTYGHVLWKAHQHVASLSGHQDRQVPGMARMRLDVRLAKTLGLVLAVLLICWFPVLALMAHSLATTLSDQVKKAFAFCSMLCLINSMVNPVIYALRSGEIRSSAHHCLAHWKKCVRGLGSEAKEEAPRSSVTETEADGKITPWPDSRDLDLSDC
T1 sequence (P98170 whole entry, the tested form may be a part): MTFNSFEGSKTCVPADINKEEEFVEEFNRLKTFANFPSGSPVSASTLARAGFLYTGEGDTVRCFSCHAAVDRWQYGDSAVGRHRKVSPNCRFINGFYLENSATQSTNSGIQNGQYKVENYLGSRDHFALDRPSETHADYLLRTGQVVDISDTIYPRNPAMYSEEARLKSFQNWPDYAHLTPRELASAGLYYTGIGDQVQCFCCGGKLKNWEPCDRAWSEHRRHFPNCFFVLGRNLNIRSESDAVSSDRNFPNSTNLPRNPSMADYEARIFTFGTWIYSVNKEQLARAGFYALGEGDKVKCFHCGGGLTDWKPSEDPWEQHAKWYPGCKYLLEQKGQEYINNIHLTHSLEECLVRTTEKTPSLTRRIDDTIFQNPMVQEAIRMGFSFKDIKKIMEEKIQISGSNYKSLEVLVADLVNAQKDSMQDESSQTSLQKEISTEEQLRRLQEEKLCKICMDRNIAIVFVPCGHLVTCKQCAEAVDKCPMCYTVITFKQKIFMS
Sequence of Sphingosine 1-phosphate receptor 1 (P21453 whole entry): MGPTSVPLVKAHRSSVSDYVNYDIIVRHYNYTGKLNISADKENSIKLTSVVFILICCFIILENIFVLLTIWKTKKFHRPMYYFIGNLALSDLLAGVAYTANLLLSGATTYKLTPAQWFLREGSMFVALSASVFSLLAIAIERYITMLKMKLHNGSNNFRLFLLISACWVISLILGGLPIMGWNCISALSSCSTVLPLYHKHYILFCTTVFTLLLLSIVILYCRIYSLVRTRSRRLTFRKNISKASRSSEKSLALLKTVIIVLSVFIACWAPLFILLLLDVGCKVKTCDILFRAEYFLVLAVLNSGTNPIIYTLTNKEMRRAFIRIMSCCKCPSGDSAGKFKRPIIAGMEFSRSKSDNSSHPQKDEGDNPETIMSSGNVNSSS
Sequence of Mu-type opioid receptor (P35372 whole entry): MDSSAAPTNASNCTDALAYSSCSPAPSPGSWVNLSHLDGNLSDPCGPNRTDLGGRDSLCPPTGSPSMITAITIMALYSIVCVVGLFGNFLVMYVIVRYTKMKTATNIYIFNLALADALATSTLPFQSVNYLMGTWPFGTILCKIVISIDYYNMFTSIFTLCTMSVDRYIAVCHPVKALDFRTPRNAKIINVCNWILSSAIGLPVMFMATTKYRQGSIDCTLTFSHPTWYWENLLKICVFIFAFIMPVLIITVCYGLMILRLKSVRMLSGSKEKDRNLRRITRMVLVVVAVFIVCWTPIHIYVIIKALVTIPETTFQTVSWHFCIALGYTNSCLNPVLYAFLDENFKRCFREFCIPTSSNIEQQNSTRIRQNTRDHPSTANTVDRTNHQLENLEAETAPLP
Sequence of Sphingosine 1-phosphate receptor 4 (O95977 whole entry, the tested form may be a part): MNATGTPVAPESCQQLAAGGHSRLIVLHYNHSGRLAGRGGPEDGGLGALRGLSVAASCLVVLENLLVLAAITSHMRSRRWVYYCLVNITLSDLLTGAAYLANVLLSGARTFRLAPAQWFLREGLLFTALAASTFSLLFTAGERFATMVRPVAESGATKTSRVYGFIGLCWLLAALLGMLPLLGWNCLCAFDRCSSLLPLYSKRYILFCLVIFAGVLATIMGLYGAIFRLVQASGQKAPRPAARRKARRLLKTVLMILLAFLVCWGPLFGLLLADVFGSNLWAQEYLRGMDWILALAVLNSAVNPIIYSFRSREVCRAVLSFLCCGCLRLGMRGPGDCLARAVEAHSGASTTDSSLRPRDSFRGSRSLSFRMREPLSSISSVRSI
Sequence of DNA damage-inducible transcript 3 protein (P35639 whole entry): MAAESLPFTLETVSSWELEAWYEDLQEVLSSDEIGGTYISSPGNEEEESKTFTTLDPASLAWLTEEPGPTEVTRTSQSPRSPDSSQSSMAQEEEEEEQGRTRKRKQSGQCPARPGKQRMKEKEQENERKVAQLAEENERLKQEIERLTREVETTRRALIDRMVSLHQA
Sequence of Delta-type opioid receptor (P41143 whole entry): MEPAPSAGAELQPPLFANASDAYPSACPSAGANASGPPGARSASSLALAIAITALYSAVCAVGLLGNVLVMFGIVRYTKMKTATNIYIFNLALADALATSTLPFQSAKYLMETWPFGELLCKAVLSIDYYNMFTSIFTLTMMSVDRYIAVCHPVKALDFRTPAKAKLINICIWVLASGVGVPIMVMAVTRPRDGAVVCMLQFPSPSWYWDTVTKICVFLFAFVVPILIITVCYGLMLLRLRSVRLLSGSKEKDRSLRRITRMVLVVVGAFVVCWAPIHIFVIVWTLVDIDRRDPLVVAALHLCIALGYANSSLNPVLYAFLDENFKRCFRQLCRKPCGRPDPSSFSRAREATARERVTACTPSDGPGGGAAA

## CC(C)c1cc(C(=O)OCC(=O)NC(=O)NCc2ccco2)c(O)c(C(C)C)c1
[1]
  EC50: > 49.8 µM (inactive)
[2]
  EC50: > 49.8 µM (not active)

## CN[C@@H](C)C(=O)N[C@H](C(=O)N1CCC[C@H]1C(=O)Nc1ccc2ncccc2c1)C(C)C
[3]
  IC50: 94.9 µM (active)
[4]
  IC50: 11.4 µM (active)

## Cc1ccc(S(=O)(=O)NCc2cccc(C(=O)NCCN(Cc3ccccc3)C(C)C)c2)cc1
[5]
  IC50: > 20 µM (inactive)
[6]
  IC50: > 20 µM (inactive)

## Cc1ccc(COc2ccc(Br)cc2/C=N/O)cc1
[7]
  AC50: 6.11 µM (active)
[8]
  Absolute IC50 (CHOP): 10 µM

## CCN(CC)S(=O)(=O)c1ccc(N2CCC(C)CC2)c(C(=O)N2CCN(c3ccccc3)CC2)c1
[9]
  IC50: > 32 µM (inactive)
[10]
  EC50: > 32 µM (inactive)
[11]
  EC50: > 32 µM (inactive)
[12]
  EC50: > 32 µM (inactive)
[13]
  IC50: > 32 µM (inactive)
[14]
  EC50: > 32 µM (inactive)
[15]
  IC50: > 32 µM (inactive)

## Cc1cccc(-c2cc(C(=O)Nc3sc(C)c(C)c3C(N)=O)c3ccccc3n2)c1
[16]
  IC50: 0.869 µM (active)
[17]
  IC50: 24.1 µM (inactive)
[18]
  EC50: > 32 µM (inactive)
[19]
  IC50: > 32 µM (inactive)
[20]
  EC50: > 32 µM (inactive)
[21]
  IC50: > 32 µM (inactive)
[22]
  IC50: 1.44 µM (active)
[23]
  EC50: > 32 µM (inactive)

## Fc1ccc(CSc2nnc(-c3ccccn3)n2Cc2cccs2)c(F)c1F
[24]
  EC50: 1.73 µM (active)
[25]
  EC50: > 32 µM (inactive)
[26]
  EC50: > 32 µM (inactive)
[27]
  EC50: 3.04 µM (active)

## Cc1ccc2[nH]c(/C(C#N)=C\c3ccc(N4CCCCC4)c([N+](=O)[O-])c3)nc2c1
[28]
  IC50: 4.23 µM (active)
[29]
  EC50: 2 µM (active)
[30]
  EC50: 19.4 µM (active)
[31]
  EC50: > 60 µM (inconclusive)
[32]
  EC50: 22 µM (active)
[33]
  IC50: 1.02 µM (active)
[34]
  IC50: 2.45 µM (active)
